Several values for one entry are separate records, joined by “and”; a condition that tells them apart may be missing. Identical values can stand only once. Like-named read-outs stand apart in the source and are kept apart here.
Columns and labels:
G95A mutant ALS [1] = assay: Inhibition of expressed GST fusion G95A mutant ALS activity by herbicides; format: biochemical, rice; conditions: 50% inhibitory concentration against G95A mutant ALS to that against wild-type ALS
Procedure: (§1) The Escherichia coli transformed with pGEX-2T having a G95A mutant ALS gene prepared in Example 6 and the same transformed with pGEX-2T (see WO02/44385A1) having a wild-type ALS gene were each shake-cultured (preculture) in 2 ml of LB liquid medium containing ampicillin at 27° C. They were each cultured in 250 ml of LB liquid medium containing ampicillin using 1 ml of the preculture solution. After overnight culture, 1 mM IPTG was added and they were further cultured for 3 to 4 hours. Thus, the expression of the GST fusion protein was induced. In addition, microbial bodies were washed with an ALS extraction buffer (potassium phosphate buffer (pH 7.5) containing 30% glycerol and 0.5 mM MgCl2) and then stored at −80° C.
(§2) Preparation and purification of ALS from Escherichia coli were performed by the following method. First, a pellet of the Escherichia coli stored at −80° C. was suspended in an ALS extraction buffer. (2.5 ml of the ALS extraction buffer was added to the pellet obtained from 50 ml of the culture solution.) The suspension was subjected to ultrasonication (Heat Systems-Ultrasonics, Sonicator W-225R, micro chip, output control 8, intervals of approximately 1 second, and twice every 40 seconds), and then centrifuged at 15000×g and 4° C. for 20 minutes, thereby obtaining the supernatant as a crude enzyme solution. Therefore, a crude enzyme solution of the GST fusion G95A mutant ALS protein and a crude enzyme solution of the GST fusion wild-type ALS protein were prepared.
(§3) A reaction solution to be used for the reaction for activity determination was prepared by mixing GST fusion ALS to be subjected to activity determination with a solution comprising 20 mM sodium pyruvate, 0.5 mM thiamine pyrophosphate, 0.5 mM MgCl2, 10 μM flavin adenine dinucleotide, 10 mM valine (added for the inhibition of activity of ALS derived from Escherichia coli), and 20 mM potassium phosphate buffer (pH 7.5). 0.5 ml of the reaction solution was used. The reaction was performed at 37° C. for 30 minutes after addition of GST fusion ALS to be subjected to activity determination. The reaction was stopped by the addition of 0.05 ml of 6 N sulfuric acid. After the completion of the reaction, the reaction solution was subjected to incubation at 37° C. for 60 minutes, so that acetolactic acid contained in the reaction solution was converted into acetoin. Subsequently, to quantify acetoin contained in the reaction solution, 0.05 ml of 0.5% (w/v) creatine and 0.05 ml of 5% (w/v) α-naphthol dissolved in 2.5 N sodium hydroxide were added, followed by 10 minutes of incubation at 37° C. Acetoin was then quantified by color comparison of the absorbance at 525 nm of the reaction solution, thereby evaluating ALS activity. The value at reaction time 0 (hours) was used as a control value. When the herbicide inhibition activity was examined, aqueous solutions of bispyribac-sodium and pyrithiobac-sodium were each prepared at a 100-fold concentration and then added to the reaction solution. In the case of pyriminobac, chlorsulfuron, bensulfuron-methyl, imazaquin, and imazapyr having low water solubility, an acetone solution was prepared for each thereof at a 100-fold concentrations and then added to the reaction solution.
(§4) The inhibition activity of various ALS inhibitors against the thus expressed G95A mutant ALS was examined.

G95A mutant ALS [2] = target: T1, G95A mutant ALS (Oryza sativa subsp. japonica, UniProt Q6K2E8, G95A); assay: as above; format: biochemical, rice
T1 construct: made in house; host or cells: Escherichia coli (pGEX-2T)
Procedure: as §1, §2, §3, §4

[3] = target: T2, wild-type ALS (GST fusion wild-type ALS) (Oryza sativa subsp. japonica, UniProt Q6K2E8); assay: Inhibition of expressed GST fusion wild-type ALS activity by herbicides; format: biochemical, rice
T2 construct: made in house; host or cells: Escherichia coli (pGEX-2T)
Procedure: as §1, §2, §3
The 50% inhibitory concentration of each herbicide against G95A mutant ALS was compared with the 50% inhibitory concentration of the herbicide against wild-type ALS (GST fusion wild-type ALS), so that the herbicide resistance ratio (RS ratio) of the 50% inhibitory concentration against G95A mutant ALS to that against wild-type ALS was calculated. The RS ratios in the cases of bispyribac-sodium, pyrithiobac-sodium, and pyriminobac were 16,000:1 or more, 9, 100:1 or more, and 13,000:1 or more, respectively. In contrast, the RS ratios in the cases of chlorsulfuron, bensulfuron-methyl, imazaquin, and imazapyr were 0.19:1, 40:1, 0.82:1, and 4.9:1, respectively. […]

[4] = test system: plants of wild-type Taichung 65; assay: Bispyribac-sodium resistance test on rooting medium, wild-type control; format: in vivo, rice; conditions: wild-type Taichung 65, 2 weeks after seeding; observed 1 and 2 weeks after transplantation
Procedure: (§5) The two lines of plants selected by the above method were designated the G95A-1 line and the G95A-2 line. Since they were albino plants, they were cultured on MS medium and then multiplied by division. To test the degree of resistance to bispyribac-sodium, clone plants divided from the G95A-1 line were transplanted on rooting media (Table 3) containing 0 μM, 1 μM, 5 μM, 10 μM, or 20 μM bispyribac-sodium (FIG. 3A: on the left in each Petri dish, observed as white because they were albino). Clone plants of the G95A-2 line (the number of these clone plants is a few) were tested using 5 μM bispyribac-sodium alone. Plants of wild-type Taichung 65 in 2 weeks after seeding were used as members of a control group (FIG. 3, on the right side in each Petri dish). Plant in 1 week (FIG. 3B) after transplantation and plant in 2 weeks (FIG. 3C) after transplantation were observed.

[5] = test system: clone plants of the G95A-1 line and the G95A-2 line; assay: Bispyribac-sodium resistance test on rooting medium, G95A lines; format: in vivo, rice; conditions: G95A-1 line at 1, 5, 10, 20 μM, G95A-2 line at 5 μM; observed 1 and 2 weeks after transplantation
Procedure: as §5

[6] = 50% inhibitory concentration (μM) G95A mutant, G95A mutant ALS (Table 5)
[7] = read-out: inhibition % at 100 μM, Average, G95A mutant ALS, average of determinations
[8] = read-out: inhibition % at 100 μM, G95A mutant ALS, single determinations (First to Third)
[9] = read-out: inhibition activity at 100 μM, G95A mutant ALS
[10] = 50% inhibitory concentration, Average, G95A mutant ALS, average of determinations (Table 4)
[11] = 50% inhibitory concentration, G95A mutant ALS, single determinations (First to Sixth)

T2 sequence (Q6K2E8 44-644): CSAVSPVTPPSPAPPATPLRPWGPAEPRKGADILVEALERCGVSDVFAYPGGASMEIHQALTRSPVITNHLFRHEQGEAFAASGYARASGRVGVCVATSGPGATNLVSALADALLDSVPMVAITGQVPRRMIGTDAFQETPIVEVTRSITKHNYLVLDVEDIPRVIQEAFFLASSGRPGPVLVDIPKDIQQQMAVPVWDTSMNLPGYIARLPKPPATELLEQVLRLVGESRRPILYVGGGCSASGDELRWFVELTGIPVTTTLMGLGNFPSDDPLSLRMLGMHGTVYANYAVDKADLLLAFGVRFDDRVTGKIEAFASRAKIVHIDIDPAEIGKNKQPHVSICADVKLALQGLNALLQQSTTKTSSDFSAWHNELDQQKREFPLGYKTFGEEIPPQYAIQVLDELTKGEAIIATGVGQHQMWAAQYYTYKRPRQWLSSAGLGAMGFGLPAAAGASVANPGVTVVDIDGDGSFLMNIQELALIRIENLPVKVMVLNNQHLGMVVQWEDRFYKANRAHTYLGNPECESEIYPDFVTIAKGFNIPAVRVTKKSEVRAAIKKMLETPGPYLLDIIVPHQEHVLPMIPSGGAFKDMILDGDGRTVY
T1 sequence (Q6K2E8 44-644 G95A): as the sequence (Q6K2E8 44-644) above, with G52A counted along it

| Structure (SMILES) | Resistance ratio (RS ratio) (G95A mutant ALS [1]) | Resistance ratio (RS ratio) (G95A mutant ALS [1]; listed as pyriminobac) | IC50 (G95A mutant ALS [2]; [6]) [µM] | inhibition % at 100 μM (G95A mutant ALS [2]; G95A mutant ALS, single determinations (First to Third), listed as PM) | inhibition at 100 µM (G95A mutant ALS [2]; [7]) [%] | inhibition at 100 µM (G95A mutant ALS [2]; [8]) [%] | inhibition at 100 µM (G95A mutant ALS [2]; [9]) [%] | IC50 [3] [nM] | IC50 (G95A mutant ALS [2]; [10]) [µM] | IC50 (G95A mutant ALS [2]; [11]) | inhibition activity against G95A mutant ALS (in words) (G95A mutant ALS [2]; G95A mutant ALS) | Resistance ratio (RS ratio) (G95A mutant ALS [1]; listed as bispyribac-sodium) | inhibition % at 100 μM (G95A mutant ALS [2]; G95A mutant ALS, single determinations (First to Third), listed as BS) | effect on plants on bispyribac-sodium-containing rooting medium [4] | resistance / rooting on bispyribac-sodium-containing rooting medium [5] | inhibition % at 100 μM (G95A mutant ALS [2]; G95A mutant ALS, single determinations (First to Third), listed as PS) |
| --- | --- | --- | --- | --- | --- | --- | --- | --- | --- | --- | --- | --- | --- | --- | --- | --- |
| CON=C(C)c1cccc(Oc2nc(OC)cc(OC)n2)c1C(=O)O (mixture of isomers) [Pyriminobac, pyriminobac] | >13000 | ≥ 13,000 | > 100 | 23.3% and 29.2% | 25.1 | 22.9 | ≤ 50 | 8 | – | – | – | – | – | – | – | – |
| COC(=O)c1ccccc1CS(=O)(=O)NC(=O)Nc1nc(OC)cc(OC)n1 [Bensulfuron-methyl, bensulfuron-methyl] | 40 | – | 0.28 | – | – | – | – | 7 | 0.278 | 0.268 µM and 0.294 µM and 0.271 µM | exerted inhibition activity | – | – | – | – | – |
| COc1cc(OC)nc(Oc2cccc(Oc3nc(OC)cc(OC)n3)c2C(=O)[O-])n1.[Na+] [Bispyribac-sodium, bispyribac-sodium] | >16000 | – | > 100 | – | 17.7 | 17.9 | ≤ 50 | 6.3 | – | – | – | ≥ 16,000 | 16.8% and 18.4% | all the wild-type plants of the control group withered | exerted resistance, with new rooting observed | – |
| COc1nc(C)nc(NC(=O)NS(=O)(=O)c2ccccc2Cl)n1 [Chlorsulfuron, chlorsulfuron] | 0.19 | – | 0.0025 | – | – | – | – | 13 | 0.0025 | 0.0019 µM and 0.0023 µM and 0.003 µM and 0.0027 µM and 0.0028 µM and 0.0021 µM | strong | – | – | – | – | – |
| CC(C)C1(C)N=C(c2ncccc2C(=O)O)NC1=O (stereo not shown) [Imazapyr, imazapyr] | 4.9 | – | 47 | – | – | – | – | 9600 | 46.8 | 46 µM and 44.6 µM and 49.7 µM | exerted inhibition activity | – | – | – | – | – |
| CC(C)C1(C)N=C(c2nc3ccccc3cc2C(=O)O)NC1=O (stereo not shown) [Imazaquin, imazaquin] | 0.82 | – | 1.8 | – | – | – | – | 2200 | 1.8 | 1.65 µM and 1.89 µM and 1.85 µM | exerted inhibition activity | – | – | – | – | – |
| COc1cc(OC)nc(Sc2cccc(Cl)c2C(=O)[O-])n1.[Na+] [Pyrithiobac-sodium, pyrithiobac-sodium] | >9100 | – | > 100 | – | 14.3 | 12.1 | ≤ 50 | 11 | – | – | – | – | – | – | – | 12.8% and 18.1% |

— patent US8017400B2 (priority 2005, dated 2011)
